Results: PMC9981719, “A novel designed membrane-active peptide for the control of foodborne Salmonella enterica serovar Typhimurium” (Scientific Reports, 2023)
Where no end group is shown, it is not given here.

Columns and labels:
[1] = test system: S. Typhimurium ATCC 13311 and 10 drug-resistant S. Typhimurium and S. enterica isolates; assay: Checkerboard titration, A11 with nisin, summary over strains; type: cell-based, Salmonella enterica; settings: summary over tested strains
Protocol: (§1) Effects of the combination of A11 with nisin against S. Typhimurium ATCC 13311 and 10 drug-resistant S. Typhimurium and S. enterica isolates were determined by the checkerboard titration method. Briefly, 10 drug-resistant S. Typhimurium were grown to a concentration of 1 × 10^7 CFU/ml in fresh TSB. Aliquots (25 µl) of nisin (final concentrations of 0.5–16 mg/ml) and A11 (final concentrations of 0.98–250 µg/ml) were added into 96-well plates containing 50 µl of bacterial suspension and cultured at 37 °C. […] ICA is the concentration required to produce the same effect as compound A when used alone, ICB is the concentration required to produce the same effect as compound B when used alone. The CI results were interpreted as follows: a CI of less than 1 indicates synergistic effect, a CI equal to 1 indicates additive effect, and a CI of more than 1 indicates antagonistic effect.

[2] = test system: S. Typhimurium H1-015; type: cell-based, Salmonella enterica serovar Typhimurium; settings: strain H1-015
From the text: (§2) All tests were done in triplicate.

[3] = test system: S. Typhimurium H1-011; type: cell-based, Salmonella enterica serovar Typhimurium; settings: strain H1-011
From the text: as §2

[4] = test system: Salmonella Typhimurium ATCC 13311; type: cell-based, Salmonella enterica serovar Typhimurium; settings: broth microdilution in MHB, 37 °C, 24 h, visible inspection, triplicate
From the text: as §2

[5] = test system: S. Typhimurium H1-001; type: cell-based, Salmonella enterica serovar Typhimurium; settings: strain H1-001
From the text: as §2

[6] = test system: S. Typhimurium H1-062; assay: MIC/MBC against drug-resistant isolate; type: cell-based, Salmonella enterica serovar Typhimurium; settings: strain H1-062
From the text: as §2

[7] = test system: S. Typhimurium H1-041; assay: MIC/MBC against drug-resistant isolate; type: cell-based, Salmonella enterica serovar Typhimurium; settings: strain H1-041
From the text: as §2

[8] = test system: S. Typhimurium H1-006; assay: MIC/MBC against drug-resistant isolate; type: cell-based, Salmonella enterica serovar Typhimurium; settings: strain H1-006
From the text: as §2

[9] = test system: 16 drug-resistant S. Typhimurium and 4,5,12:i:- isolates from Thailand; type: cell-based, Salmonella enterica; settings: summary over 16 isolates; nisin up to maximum concentration of 16,000 µg/ml
From the text: as §2

[10] = test system: 4,5,12:i:- H2-042; type: cell-based, Salmonella enterica 4,5,12:i:-; settings: strain H2-042
From the text: as §2

[11] = test system: 4,5,12:i:- H1-100; type: cell-based, Salmonella enterica 4,5,12:i:-; settings: strain H1-100
From the text: as §2

[12] = test system: 4,5,12:i:- H2-039; type: cell-based, Salmonella enterica 4,5,12:i:-; settings: strain H2-039
From the text: as §2

[13] = test system: 4,5,12:i:- H2-089; type: cell-based, Salmonella enterica 4,5,12:i:-; settings: strain H2-089
From the text: as §2

[14] = test system: 4,5,12:i:- H2-067; type: cell-based, Salmonella enterica 4,5,12:i:-; settings: strain H2-067
From the text: as §2

[15] = test system: 4,5,12:i:- H2-049; type: cell-based, Salmonella enterica 4,5,12:i:-; settings: strain H2-049
From the text: as §2

[16] = test system: 4,5,12:i:- H1-024; type: cell-based, Salmonella enterica 4,5,12:i:-; settings: strain H1-024
From the text: as §2

[17] = test system: 4,5,12:i:- H2-010; type: cell-based, Salmonella enterica 4,5,12:i:-; settings: strain H2-010
From the text: as §2

[18] = test system: 4,5,12:i:- H2-071; type: cell-based, Salmonella enterica 4,5,12:i:-; settings: strain H2-071
From the text: as §2

[19] = test system: 4,5,12:i:- H2-047; type: cell-based, Salmonella enterica 4,5,12:i:-; settings: strain H2-047
From the text: as §2

[20] = test system: S. Typhimurium H1-062; settings: checkerboard
Protocol: as §1

[21] = test system: 4,5,12:i:- H2-042; settings: checkerboard
Protocol: as §1

[22] = test system: 4,5,12:i:- H1-100; settings: checkerboard
Protocol: as §1

[23] = test system: S. Typhimurium H1-041; settings: checkerboard
Protocol: as §1

[24] = test system: 4,5,12:i:- H2-039; settings: checkerboard
Protocol: as §1

[25] = test system: 4,5,12:i:- H2-089; settings: checkerboard
Protocol: as §1

[26] = test system: S. Typhimurium H1-015; settings: checkerboard
Protocol: as §1

[27] = test system: S. Typhimurium H1-011; settings: checkerboard
Protocol: as §1

[28] = test system: S. Typhimurium H1-006; settings: checkerboard
Protocol: as §1

[29] = test system: S. Typhimurium H1-001; settings: checkerboard
Protocol: as §1

[30] = test system: S. Typhimurium ATCC13311; settings: checkerboard, TSB, 37 °C, 24 h
Protocol: as §1

Nisin (ITSISLCTPGCKTGALMGCNMKTATCHCSIHVSK; not fully specified (some residues, bridges); also: lantibiotic nisin-A: thioether (lanthionine) rings and dehydrated residues, places not given here; UniProt P13068 24-57, looked up)
MIC of nisin in combination with A11 [1]: 500 µg/mL
MIC [2]: > 16,000 µg/ml
MIC [3]: > 16,000 µg/ml
MIC [4]: 16,000 µg/ml
MIC [5]: > 16,000 µg/ml
MIC [6]: > 16,000 µg/ml
MIC [7]: > 16,000 µg/ml
MIC [8]: > 16,000 µg/ml
MICs against the 16 drug-resistant S. enterica isolates [9]: > 16,000 µg/ml
MIC [10]: > 16,000 µg/ml
MIC [11]: > 16,000 µg/ml
MIC [12]: > 16,000 µg/ml
MIC [13]: > 16,000 µg/ml
MIC [14]: > 16,000 µg/ml
MIC [15]: > 16,000 µg/ml
MIC [16]: > 16,000 µg/ml
MIC [17]: > 16,000 µg/ml
MIC [18]: > 16,000 µg/ml
MIC [19]: > 16,000 µg/ml
MIC (combination) ([20]; A11 combined with nisin): 500 µg/mL
MIC (alone) ([20]; TSB, 37 °C, 24 h): > 16,000 µg/ml
MIC (combination) ([21]; A11 combined with nisin): 500 µg/mL
MIC (alone) ([21]; TSB, 37 °C, 24 h): > 16,000 µg/ml
MIC (combination) ([22]; A11 combined with nisin): 500 µg/mL
MIC (alone) ([22]; TSB, 37 °C, 24 h): > 16,000 µg/ml
MIC (combination) ([23]; A11 combined with nisin): 500 µg/mL
MIC (alone) ([23]; TSB, 37 °C, 24 h): > 16,000 µg/ml
MIC (combination) ([24]; A11 combined with nisin): 500 µg/mL
MIC (alone) ([24]; TSB, 37 °C, 24 h): > 16,000 µg/ml
MIC (combination) ([25]; A11 combined with nisin): 500 µg/mL
MIC (alone) ([25]; TSB, 37 °C, 24 h): > 16,000 µg/ml
MIC (combination) ([26]; A11 combined with nisin): 500 µg/mL
MIC (alone) ([26]; TSB, 37 °C, 24 h): > 16,000 µg/ml
MIC (combination) ([27]; A11 combined with nisin): 500 µg/mL
MIC (alone) ([27]; TSB, 37 °C, 24 h): > 16,000 µg/ml
MIC (combination) ([28]; A11 combined with nisin): 500 µg/mL
MIC (alone) ([28]; TSB, 37 °C, 24 h): > 16,000 µg/ml
MIC (combination) ([29]; A11 combined with nisin): 500 µg/mL
MIC (alone) ([29]; TSB, 37 °C, 24 h): > 16,000 µg/ml
MIC (combination) ([30]; A11 combined with nisin): 4000 µg/mL
MIC (alone) [30]: 16,000 µg/ml
